Assay results published in patent US12478067B2, “Heterocyclic compound and harmful arthropod pest control composition containing same” (SUMITOMO CHEMICAL COMPANY, LIMITED, priority 2019, dated 2025).

How the values were obtained:
Format in all cases: in vivo
[1] = test system: Western corn rootworms (Diabrotica virgifera virgifera); assay: whole plant or invertebrate; settings: 120 h, Test Example 9-1, corn seedling immersed 30 seconds, second instar larvae, after 5 days, 25° C., read-out: mortality of insects
Procedure: Each 1 mg of the test compounds is dissolved into 50 μL of a mixed solution of polyoxyethylene sorbitan mono-cocoate and acetone (polyoxyethylene sorbitan mono-cocoate:acetone=5:95 (v/v ratio)).
A young entire seedling of Corns (Zea mays) is immersed into the diluted solution for 30 seconds. […] Mortality (%)=(Number of dead insects/10}×100

[2] = test system: common house mosquito (Culex pipiens pallens); assay: whole plant or invertebrate; settings: 24 h, Test Example 8, last instar larvae, after 1 day, 25° C., read-out: mortality of insects
Text: Mortality (%)=(Number of dead insects/Number of tested insects)×100

[3] = test system: housefly (Musca domestica); assay: Test method 7: coated container, housefly female adults; settings: Test Example 7-1, container coated at 40 mg/m^2 (800 ppm acetone solution), elapsed time 1 hour, 25° C., read-out: mortality of insects
Procedure: An acetone solution which is adjusted to 800 ppm of the test compound is poured into a container having 20 mL contents, and the test compound is coated uniformly on inner face of the container so as to make 40 mg/m^2 thereof, and the container is then allowed to dry.
Into the container, five (5) housefly (Musca domestica) female adults are released into the container, and the container is then covered with the lid. […] Mortality (%)=(Number of dead insects/Number of tested insects)×100

[4] = test system: housefly (Musca domestica); assay: Test method 6: filter paper with sucrose bait, housefly female adults; settings: Test Example 6, 0.7 ml on filter paper with sucrose bait, after 24 hours, 25° C., read-out: mortality of insects
Procedure: A filter paper having a diameter of 5.5 cm in diameter is spread on the bottom of the cup, and then 0.7 ml of the diluted solutions are added dropwise to the filter paper and 30 mg of sucrose is uniformly placed on the filter paper as a bait. Ten (10) housefly (Musca domestica) female adults are released into the cup, and the cup is then covered with the lid. […] Mortality (%)=(Number of dead insects/Number of tested insects)×100

| SMILES | mortality at 500 ppm [1] [%] | mortality at 3.5 ppm [2] [%] | mortality at 40 mg/m2 [3] [%] | mortality at 500 ppm [4] [%] |
| --- | --- | --- | --- | --- |
| CCSc1c(-n2cnc3cc(C(F)(F)F)ccc3c2=O)nc2ccc(Br)cn12 [Present compound 2-1] | ≥ 80 | ≥ 91 | – | – |
| CCSc1c(-n2nnc3ccc(C(F)(F)F)cc3c2=O)nc2ccc(Br)cn12 [Present compound 4-2] | ≥ 80 | ≥ 91 | ≥ 80 | – |
| CCSc1c(-n2cnc3cc(C(F)(F)F)ccc3c2=O)nc2cc(C(F)(F)F)ccn12 [Present compound 2-15] | – | ≥ 91 | – | ≥ 70 |
